# Laboratory results from PMC10518257 (Nature Cancer, 2023).
# pIC50: −log10 of the molar value. Where “and” joins values, the source holds several entries; their conditions need not be identical. Equal entries are not always repeated.
# Columns and labels:
# LC-2/ad cells = experiment: Growth inhibition (alamarBlue, 96 h); format: cell-based, human; settings: for raw viability signal (Source Data Fig. 3b-c): LC-2/Ad, replicate sets
# Ba/F3 cells = experiment: Growth inhibition assay in Ba/F3 cells (CellTiter-Glo, 72 h); format: cell-based; settings: replicate Sets 1-3
# [1] = system: phosphorylation of RET^G810R, RET^G810S and RET^G810C in Ba/F3 cells; experiment: Western blotting of RET phosphorylation in Ba/F3 KIF5B–RET cells; format: cell-based; settings: 1 h, western blot
# [2] = system: Ba/F3 cells expressing KIF5B–RET^V804L; experiment: Growth inhibition assay in Ba/F3 cells (CellTiter-Glo, 72 h); format: cell-based; settings: Ba/3-KIF5B-RET-V804L; replicate sets
# MMNK1 cholangiocytes = experiment: Growth inhibition (alamarBlue, 96 h); format: cell-based, human; settings: for raw viability signal (Source Data Fig. 3b-c): MMNK, replicates
# LUAD-0057BS1 cells = experiment: Growth inhibition (alamarBlue, 96 h); format: cell-based, human; settings: for raw viability signal (Source Data Fig. 3b-c): LUAD-0057BS1, replicate sets
# [3] = Transcellular transport study, apparent permeability; settings: pig, LLC-PK1
# HBECp53-EV cells = experiment: Growth inhibition (alamarBlue, 96 h); format: cell-based, human; settings: for raw viability signal (Source Data Fig. 3b-c): HBEC-EV, replicate sets
# [4] = Animal weight of tumor-bearing mice; settings: for Animal Weight (g), Mean: Ba/F3-KIF5B::RET tumor-bearing mice (Ext. Data Fig 8i)
# [5] = Homo sapiens, 96 h, read-out: IC50 for Inhibition of Growth (95% CI)
smiles,measurement,setting,value
CO[C@]1(C(=O)N[C@@H](C)c2ccc(-n3cc(F)cn3)nc2)CC[C@H](c2nc(C)cc(Nc3cc(C)[nH]n3)n2)CC1 [Pralsetinib],pIC50,"LC-2/ad cells; Homo sapiens, LC-2-ad, 96 h, read-out: IC50 for Inhibition of Growth (95% CI)",7.74
same,raw viability signal (Source Data Fig. 3b-c),LC-2/ad cells; 0.01 nM,14336.4 and 23167.3
same,raw viability signal (Source Data Fig. 3b-c),LC-2/ad cells; 0.1 nM,14242.4 and 23367.8
same,raw viability signal (Source Data Fig. 3b-c),LC-2/ad cells; 1 nM,13261.9 and 22232.1
same,raw viability signal (Source Data Fig. 3b-c),LC-2/ad cells; 10 nM,6314.77 and 17508.9
same,raw viability signal (Source Data Fig. 3b-c),LC-2/ad cells; 100 nM,3979.18 and 8357.34
same,raw viability signal (Source Data Fig. 3b-c),LC-2/ad cells; 1000 nM,2225.01 and 2896.43
same,raw viability signal (Source Data Fig. 3b-c),LC-2/ad cells; 10000 nM,918.728 and 947.198
same,GI50,Ba/F3 cells; Ba/F3 (parental),1420 nM
same,GI50,"Ba/F3 cells; Mus musculus, BaF3, Ba/F3 (parental)",1070 nM
same,"block of phosphorylation of RET^G810R, RET^G810S or RET^G810C",[1],did not block
same,GI50,[2],10.6 nM and 6.67 nM and 4.32 nM
same,pIC50,MMNK1 cholangiocytes; [5],5.92
same,raw viability signal (Source Data Fig. 3b-c),MMNK1 cholangiocytes; 0.01 nM,14061.5 and 14595.7
same,raw viability signal (Source Data Fig. 3b-c),MMNK1 cholangiocytes; 0.1 nM,14508.1 and 15314.3
same,raw viability signal (Source Data Fig. 3b-c),MMNK1 cholangiocytes; 1 nM,14527.4 and 15275.2
same,raw viability signal (Source Data Fig. 3b-c),MMNK1 cholangiocytes; 10 nM,14437.6 and 14593.5
same,raw viability signal (Source Data Fig. 3b-c),MMNK1 cholangiocytes; 100 nM,12743.6 and 12893.3
same,raw viability signal (Source Data Fig. 3b-c),MMNK1 cholangiocytes; 1000 nM,8417.95 and 8619.63
same,raw viability signal (Source Data Fig. 3b-c),MMNK1 cholangiocytes; 10000 nM,2073.73 and 2410.62
same,pIC50,LUAD-0057BS1 cells; [5],7.44
same,raw viability signal (Source Data Fig. 3b-c),LUAD-0057BS1 cells; 0.01 nM,16595.3 and 17181.3 and 21729.4
same,raw viability signal (Source Data Fig. 3b-c),LUAD-0057BS1 cells; 0.1 nM,16479.6 and 19958 and 20455.1
same,raw viability signal (Source Data Fig. 3b-c),LUAD-0057BS1 cells; 1 nM,16334.3 and 18804.2 and 20595.3
same,raw viability signal (Source Data Fig. 3b-c),LUAD-0057BS1 cells; 10 nM,13376 and 14580.9 and 14292.2
same,raw viability signal (Source Data Fig. 3b-c),LUAD-0057BS1 cells; 100 nM,5525.42 and 5782.49 and 4569.11
same,raw viability signal (Source Data Fig. 3b-c),LUAD-0057BS1 cells; 1000 nM,1800.25 and 2058.52 and 1619.82
same,raw viability signal (Source Data Fig. 3b-c),LUAD-0057BS1 cells; 10000 nM,968.48 and 1261.32 and 1236.21
same,"Papp at 3 h, 1 μM",[3],14.3 ×10⁻⁶ cm/s
same,raw viability signal (Source Data Fig. 3b-c),HBECp53-EV cells; 0.01 nM,18620.9 (2×) and 26084.1 and 32208.8
same,raw viability signal (Source Data Fig. 3b-c),HBECp53-EV cells; 0.1 nM,18754 (2×) and 26388.7 and 34047.4
same,raw viability signal (Source Data Fig. 3b-c),HBECp53-EV cells; 1 nM,20833.4 (2×) and 23057.6 and 32620.9
same,raw viability signal (Source Data Fig. 3b-c),HBECp53-EV cells; 10 nM,19432.8 (2×) and 24252.3 and 33045.2
same,raw viability signal (Source Data Fig. 3b-c),HBECp53-EV cells; 100 nM,20060.8 (2×) and 26236.5 and 33461.6
same,raw viability signal (Source Data Fig. 3b-c),HBECp53-EV cells; 1000 nM,13712.5 (2×) and 19031.7 and 36040.1
same,raw viability signal (Source Data Fig. 3b-c),HBECp53-EV cells; 10000 nM,6305.27 (2×) and 11469.7 and 22649.7
same,pIC50,HBECp53-EV cells; [5],5.16
same,"Animal Weight, Mean","[4]; Ba/F3-KIF5B::RET G810R (Fig 8f), Pralsetinib 10 mg/kg BID, day 1",26.74 g
same,"Animal Weight, Mean","[4]; Ba/F3-KIF5B::RET G810R (Fig 8f), Pralsetinib 10 mg/kg BID, day 4",26.42 g
same,"Animal Weight, Mean","[4]; Ba/F3-KIF5B::RET G810R (Fig 8f), Pralsetinib 10 mg/kg BID, day 8",25.72 g
same,"Animal Weight, Mean","[4]; Ba/F3-KIF5B::RET G810R (Fig 8f), Pralsetinib 10 mg/kg BID, day 11",26.48 g
same,"Animal Weight, Mean","[4]; Ba/F3-KIF5B::RET G810R (Fig 8f), Pralsetinib 10 mg/kg BID, day 15",26.66 g
same,"Animal Weight, Mean","[4]; Ba/F3-KIF5B::RET G810R (Fig 8g), Pralsetinib 30 mg/kg BID, day 1",25.3 g
same,"Animal Weight, Mean","[4]; Ba/F3-KIF5B::RET G810R (Fig 8g), Pralsetinib 30 mg/kg BID, day 4",26.8 g
same,"Animal Weight, Mean","[4]; Ba/F3-KIF5B::RET G810R (Fig 8g), Pralsetinib 30 mg/kg BID, day 8",26.6 g
same,"Animal Weight, Mean","[4]; Ba/F3-KIF5B::RET G810R (Fig 8g), Pralsetinib 30 mg/kg BID, day 11",25.3 g
same,"Animal Weight, Mean","[4]; Ba/F3-KIF5B::RET G810R (Fig 8g), Pralsetinib 30 mg/kg BID, day 15",26.0 g
same,"Animal Weight (g), Mean","[4]; 3 mg/kg BID, day 1",26.4 g
same,"Animal Weight (g), Mean","[4]; 3 mg/kg BID, day 4",26.5 g
same,"Animal Weight (g), Mean","[4]; 3 mg/kg BID, day 8",26.3 g
same,"Animal Weight (g), Mean","[4]; 3 mg/kg BID, day 11",27.3 g
same,"Animal Weight (g), Mean","[4]; 3 mg/kg BID, day 15",27.9 g
same,"Animal Weight (g), Mean","[4]; 10 mg/kg BID, day 1",26.2 g
same,"Animal Weight (g), Mean","[4]; 10 mg/kg BID, day 4",26.8 g
same,"Animal Weight (g), Mean","[4]; 10 mg/kg BID, day 8",26.6 g
same,"Animal Weight (g), Mean","[4]; 10 mg/kg BID, day 11",26.8 g
same,"Animal Weight (g), Mean","[4]; 10 mg/kg BID, day 15",27.7 g
same,"Animal Weight (g), Mean","[4]; 30 mg/kg BID, day 1",26.2 g
same,"Animal Weight (g), Mean","[4]; 30 mg/kg BID, day 4",26.3 g
same,"Animal Weight (g), Mean","[4]; 30 mg/kg BID, day 8",25.8 g
same,"Animal Weight (g), Mean","[4]; 30 mg/kg BID, day 11",26.9 g
